Source: publication PMC9810691, “Structure-guided peptide engineering of a positive allosteric modulator targeting the outer pore of TRPV1 for long-lasting analgesia” (Nature Communications, 2023)
Values joined by “and” are separate entries in the source; they are usually repeats but may differ in a detail not shown here. Equal values may be shown once.

Columns and labels:
[1] = tested on: TRPV1 K604E; test: Desensitization, TRPV1 mutant K604E; assay type: cell-based, murine; details: 10 μM cap alone or + 30 μM s-RhTx; single cells; listed as cap
Method: Site mutations of mTRPV1 were generated by Fast Mutagenesis Kit (Takara Bio). Primers used to generate point mutations are summarized in Supplementary Table 1. All mutations were confirmed by sequencing.
(§1) Patch-clamp recordings were carried out with a HEKA EPC10 amplifier controlled by PatchMaster software (HEKA). Patch pipettes were prepared from borosilicate glass and fire-polished to resistance of 3–8 MΩ by P-97 puller. Both bath solution and pipette solution contained 130 mM NaCl, 10 mM glucose, 0.2 mM EDTA, and 3 mM HEPES and were adjusted to pH 7.2–7.4 with NaOH for whole-cell recordings. For solution with pH lower than 6.5, HEPES was replaced by MES. Whole-cell recordings were performed at ±80 mV. Current was sampled at 10 kHz and filtered at 2.9 kHz. All recordings were performed at room temperature (25 °C). A gravity-driven system (RSC-200, Bio-Logic) with freely rotated perfusion tubes was used for the perfusion of peptide or ligands. Bath and ligand solution were delivered through separate tubes to minimize the mixing of solutions. Patch pipette holding cells was placed in front of the perfusion tube outlet for perfusion. […]
(§2) Data from whole-cell recordings were analyzed in Igor Pro version 5.05 (WaveMatrix). […]

[2] = tested on: CFA-induced chronic inflammatory pain model mice; assay type: in vivo; details: capsaicin alone (with saline) or with linear or folded s-RhTx; words
Method: Mechanical allodynia was assessed via von Frey test as previously reported. Mice were placed in a plexiglass chamber upon the elevated metal mesh with 1 cm openings and allowed to acclimatize for 1 h. To determine mechanical thresholds of paw withdrawal, a series of von Frey filaments (0.02–2.56 g, Stoelting Co.) with increasing stiffness were used according to Dixon’s up-down method.

[3] = tested on: wildtype mice; assay type: in vivo
Method: Adult C57 BL/6 mice (male, 8–10 weeks) and Trpv1^-/- mice (Jax Strain #:003770) were used for behavioral studies. To specifically label Trpv1-positive nerve fibers in skin tissues, Trpv1-Cre mice[36] (Jax Strain #:017769) were crossed with floxed reporter lines (Ai32, Jax Strain #:012569 or Ai14, Jax Strain #:007914) to get the transgenic reporter (Trpv1-Ai32 or Trpv1-Ai14) mice. Mice were group-housed at 22–24 °C and relative humidity of 30–70% under the 12 h light-dark cycle with access to standard food and water ad libitum. All the animal procedures were approved by the Institutional Animal Care & Use Committee (IACUC) of Zhejiang University. […]
Spontaneous pain was measured by counting the time (s) mice spent on licking, lifting, or flinching the affected hind paws over a 10-min period after i.pl. injection.

[4] = tested on: CFA-induced chronic inflammatory pain model mice; test: CFA-induced heat hyperalgesia (Hargreaves test); assay type: in vivo; details: capsaicin alone (with saline) or with linear or folded s-RhTx; words
Method: Thermal sensitivity was tested using a Hargreaves radiant heat apparatus (IITC Life Science) as previously reported[40],[41]. For heat hyperalgesia test in CFA model, the basal paw withdrawal latency was adjusted to 9 to 12 s, with a cutoff of 20 s to prevent tissue damage. For thermal sensitivity test, the basal paw withdrawal latency was adjusted to 4 to 6 s, with a cutoff of 10 s to prevent tissue damage. Withdrawal latency were averaged from three consecutive tests with a 5 min interval between measurements.

[5] = tested on: Trpv1+ nerve fibers, Trpv1-Ai32 / Trpv1-Ai14 mice; test: Trpv1+ intra-epidermal nerve fiber (IENF) quantification; assay type: in vivo; details: capsaicin 200 ng alone or with 2 μg peptide
Method: Adult C57 BL/6 mice (male, 8–10 weeks) and Trpv1^-/- mice (Jax Strain #:003770) were used for behavioral studies. To specifically label Trpv1-positive nerve fibers in skin tissues, Trpv1-Cre mice[36] (Jax Strain #:017769) were crossed with floxed reporter lines (Ai32, Jax Strain #:012569 or Ai14, Jax Strain #:007914) to get the transgenic reporter (Trpv1-Ai32 or Trpv1-Ai14) mice. Mice were group-housed at 22–24 °C and relative humidity of 30–70% under the 12 h light-dark cycle with access to standard food and water ad libitum. All the animal procedures were approved by the Institutional Animal Care & Use Committee (IACUC) of Zhejiang University.
After appropriate survival times, the mice were deeply anesthetized with isoflurane and perfused through the ascending aorta with PBS, followed by 4% PFA. After the perfusion, the hind paw glabrous skins and L4-L6 DRGs were removed and postfixed in the same fixative overnight. Skin sections (30 μm) and DRG sections (10 μm) were cut in a cryostat. Sections were blocked with 2% BSA for 2 h at room temperature and then incubated with Deep-red 640/660-conjugated Nissl (1:1000) at room temperature for 2 h. Sections were then incubated with DAPI (1:10,000, Vector Laboratories, catalog H-1200) for 5 min, followed by three times washing with PBS for 5 min each. The stained and mounted sections were examined with a Nikon fluorescence microscope, and images were captured with a charge-coupled device Spot camera. For quantification analysis, at least three sections from each mouse were selected, and at least three mice were analyzed in each group. To evaluate Trpv1-positive nerve fiber degeneration, transgenic reporter (Trpv1-Ai32 or Trpv1-Ai14) mice were used for the quantification of intra-epidermal nerve fiber (IENF) density. IENF density was calculated by counting the number of IENF crossing the epidermis-dermis boundary within unit length.

[6] = target: T1, TRPV1 (Mus musculus, UniProt Q704Y3); test: Capsaicin-induced desensitization of TRPV1 (WT) in calcium; assay type: cell-based, murine
Method: (§3) HEK293T cells are cultured using DMEM medium contained 10% FBS in a cell incubator with 5% CO2 at 37 °C. Plasmids of murine TRPV1, TRPV2, TRPV3 and human TRPA1 are labeled with YFP or GFP as indicators for subsequent electrophysiological recordings. cDNA constructs of ion channels were transiently transfected with Lipofectamine 2000 (Invitrogen, Carlsbad, CA). And one or 2 days after transient transfection, electrophysiological recordings were performed.
as §1, with “solutions.” for “solutions. Patch pipette holding cells was placed in front of the perfusion tube outlet for perfusion.”
as §2

[7] = target: T1, TRPV1; test: Calcium imaging, HEK293T cells expressing TRPV1; assay type: cell-based, murine
Method: as §3
Calcium imaging assay was performed as previously described[12],[20]. In brief, HEK293T cells expressing TRPV1 were incubated with 2 μM Fluo-4 AM (Thermo Fisher) in 2 mM calcium Ringer’s solution (140 mM NaCl, 5 mM KCl, 2 mM MgCl2, 2 mM CaCl2, 10 mM glucose, and 10 mM HEPES, pH 7.4). Fluorescence images of HEK293T cells were acquired with Nikon Eclipse Ti2 microscope with optiMOS charge-coupled device camera controlled by the Ocular Software (Molecular Devices). Fluo-4 AM was excited at 500/20-nm excitation, and fluorescence emission was detected at 535/30-nm. Fluorescence images were analyzed with Fiji software and Office Excel.

T1 sequence (Q704Y3 whole entry): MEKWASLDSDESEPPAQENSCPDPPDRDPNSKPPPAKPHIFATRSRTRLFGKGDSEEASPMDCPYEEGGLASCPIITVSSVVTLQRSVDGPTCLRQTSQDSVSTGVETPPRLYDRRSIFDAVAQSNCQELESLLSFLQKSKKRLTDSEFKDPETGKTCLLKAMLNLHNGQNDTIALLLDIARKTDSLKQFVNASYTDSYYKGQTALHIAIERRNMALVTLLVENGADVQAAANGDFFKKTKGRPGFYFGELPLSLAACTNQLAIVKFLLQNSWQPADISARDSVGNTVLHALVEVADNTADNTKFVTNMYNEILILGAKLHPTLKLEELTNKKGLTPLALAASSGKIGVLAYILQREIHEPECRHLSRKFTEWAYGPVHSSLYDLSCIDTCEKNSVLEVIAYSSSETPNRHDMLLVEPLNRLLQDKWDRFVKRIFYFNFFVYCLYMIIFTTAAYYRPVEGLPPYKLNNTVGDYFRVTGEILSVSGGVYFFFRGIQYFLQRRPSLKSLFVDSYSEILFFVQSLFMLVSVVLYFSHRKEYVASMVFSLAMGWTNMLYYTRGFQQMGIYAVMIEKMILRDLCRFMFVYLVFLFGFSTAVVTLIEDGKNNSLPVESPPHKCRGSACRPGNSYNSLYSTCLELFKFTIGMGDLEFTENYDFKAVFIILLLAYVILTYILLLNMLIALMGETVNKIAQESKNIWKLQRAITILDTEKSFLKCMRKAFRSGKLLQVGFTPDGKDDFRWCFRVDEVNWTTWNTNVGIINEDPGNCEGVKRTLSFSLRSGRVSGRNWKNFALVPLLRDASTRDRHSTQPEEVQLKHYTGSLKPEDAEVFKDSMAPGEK

COc1cc(CNC(=O)CCCC/C=C/C(C)C)ccc1O [capsaicin, Capsaicin]
desensitization time constant, K604E [1]: 46.184 s and 35.399 s and 63.872 s and 58.758 s and 34.354 s and 64.15 s | effect on CFA-induced mechanical allodynia [2]: robust and prolonged mechanical allodynia | spontaneous pain behavior, with capsaicin ([3]; capsaicin 200 ng alone or with 2 μg peptide, i.pl., words): caused a mild spontaneous pain behavior | total time of spontaneous pain within 10 min, with capsaicin ([3]; capsaicin 200 ng i.pl. alone (cap) or with 2 μg linear or folded s-RhTx, 20 μl, individual mice, listed as Cap): 63.91 s and 41.04 s and 20.17 s and 30.43 s and 88.51 s and 98.54 s and 102.03 s and 29.73 s and 145.77 s | effect on CFA-induced heat hyperalgesia [4]: slow recovery from heat hyperalgesia | IENF number, with capsaicin ([5]; individual mice, listed as Cap): 11 and 9 and 12 | number of Trpv1+ IENF, with capsaicin ([5]; words): little effect on the number of Trpv1^+ IENF | AUC of desensitization (mean) [6]: 72.39 ± 6.61 and 39.25 ± 5.01 | desensitization time constant tau (mean) [6]: 47.37 ± 6.14 s and 23.87 ± 3.97 s | calcium influx [7]: cannot induce discernable calcium influx
